Here are results for 1 compound from PMC4398456, “Evidence for a Novel Mechanism of Antimicrobial Action of a Cyclic R-,W-Rich Hexapeptide” (PLoS ONE, 2015).

A short description of one data set: ITC binding to LUVs. The following applies: 25°C; for K 0 (hydrophobic partition coefficient): phosphate buffer pH 7.4, surface partition model; for ΔG°: calculated as -RT ln(55.5 M × K 0); for -TΔS°: from Gibbs-Helmholtz equation. The source says:
Large unilamellar vesicles (LUVs) were used for isothermal titration calorimetry studies and prepared as described before. […] As CL potentially carries two negative charges it was applied at half POPG concentrations to give liposomes with identical surface charge. Subsequently, chloroform was evaporated under nitrogen stream and obtained lipid films were dried under high vacuum for several hours and rehydrated in phosphate buffer by thorough vortexing. The solution was heated 2–3 times in a water bath to 40°C to facilitate resuspension. POPE-LUVs were obtained after 35-fold extrusion through two stacked polycarbonate membranes (100 nm pore size) using a mini extruder (Avestin, Switzerland). The procedure gives vesicles with a diameter of 90–120 nm as determined with dynamic light scattering (DLS) performed on a Zetasizer Nano ZS ZEN 3600 (Malvern Instruments, UK). Large liposomes for dye release experiments were prepared with a solution of 80 mM calcein in 10 mM Tris buffer, 0.1 mM EDTA, pH 7.4 and treated to remove non-incorporated dye as described before.
High-sensitivity isothermal titration calorimetry (ITC) experiments to characterise peptide interaction with model membranes were performed at 25°C on a VP-ITC instrument (MicroCall, Malvern Instruments, UK). Binding data were generated as described before. Prior to use, solutions were gently degassed under vacuum. 10 μl aliquots of 5 to 10 mM lipid vesicles were titrated into a 40 μM peptide solution inside the calorimeter cell (1.4 ml) while the reaction mixture was continuously stirred at 307 rpm. Time intervals between injections were adjusted to 10 min which was sufficient for the heat signal to return to baseline level. Automated baseline adjustment and peak integration were accomplished with the public-domain software NITPIC [32].
Binding parameters, such as hydrophobic partition coefficient (K 0) and enthalpy of binding (ΔH°), were derived by applying a surface partition equilibrium under the specific condition that peptide adsorption is linearly related to the peptide concentration immediately above the membrane surface. This concentration in close proximity to the membrane is determined by electrostatic interactions and depends on the bulk concentration of peptide, peptide charge and membrane surface potential. Negatively charged lipid layers attract cationic peptides. Consequently, the membrane surface concentration is enhanced compared to that in the bulk solution. After binding of cationic peptides to an electrically neutral membrane it becomes positively charged which results in a repulsion of further peptides from the membrane surface. Using the Gouy—Chapman theory which accounts for electrostatic effects, it is possible to calculate the peptide surface concentration and to determine the partition coefficient K 0 [33]. Nonlinear least-squares data fitting was performed with Excel 2010 (Microsoft) using the Solver add-in (Frontline Systems). The Gibbs free energy was calculated according to ΔG° = -RT ln(55.5 M × K 0), where 55.5 M is the molar concentration of water in the aqueous phase. Finally, the entropic contribution to membrane partitioning,-TΔS°, was derived from the Gibbs-Helmholtz equation, ΔG° = ΔH°-TΔS°.

The next data set relates to mammalian cells. The following applies: cited from earlier work. An excerpt: The structure-activity-relationship of small cyclic R-,W-rich peptides is well characterised. […] With cationic charge and high amphipathicity the cyclic peptide features the structural determinants for membrane activity.
[1] abbreviates: LUVs of POPC/CL (87.5/12.5 mol%).
Setting [2] is: LUVs of POPE/CL (87.5/12.5 mol%).

Residues, ends and D or L forms follow the SMILES beside them.

Turning to `N=C(N)NCCC[C@@H]1NC(=O)[C@H](CCCNC(=N)N)NC(=O)[C@H](Cc2c[nH]c3ccccc23)NC(=O)[C@H](Cc2ccccc2)NC(=O)[C@H](Cc2c[nH]c3ccccc23)NC(=O)[C@H](CCCNC(=N)N)NC1=O` [cWFW] (cyclo(FWRRRW)), the “ΔH°” value in the data set “ITC binding to LUVs” (5 mM LUVs into 40 μM peptide, γ = 1) is -2.87 kcal/mol; in the data set “ITC binding to LUVs” (10 mM LUVs into 40 μM peptide, γ = 0.5), -1.22 kcal/mol; in the data set “ITC binding to LUVs” (LUVs into 40 μM peptide, γ = 0.5), -5.81 kcal/mol. The “K 0 (hydrophobic partition coefficient)” value came out at 5.5e+07 M⁻¹ in the data set “ITC binding to LUVs” (5 mM LUVs titrated into 40 μM peptide, γ = 1); 3.7e+06 M⁻¹ in “ITC binding to LUVs” (10 mM LUVs titrated into 40 μM peptide, γ = 0.5); 1.4e+06 M⁻¹ in “ITC binding to LUVs” (5 to 10 mM LUVs titrated into 40 μM peptide, γ = 0.5). Moreover, the “ΔG°” value in “ITC binding to LUVs” (setting [1]) is -10.8 kcal/mol; in the data set “ITC binding to LUVs” (setting [2]) it was -12.9 kcal/mol; in the data set “ITC binding to LUVs” (LUVs of POPE/POPG (75/25 mol%)) it was -11.3 kcal/mol. Also, the “-TΔS°” value in “ITC binding to LUVs” (setting [1]) was -4.95 kcal/mol; in “ITC binding to LUVs” (setting [2]), -10.1 kcal/mol; in “ITC binding to LUVs” (LUVs of POPE/POPG (75/25 mol%)), -10.1 kcal/mol. In addition, the “toxicity towards mammalian cells” value with mammalian cells is “no toxicity”.
